Assay results taken from PubChem BioAssay AID330 (DTP/NCI, 2004).
Where “and” joins values, the source holds several entries; their conditions need not be identical. Equal values may be shown once. Toxic doses and inconclusive results are not listed. How the source made its calls: active means survival T/C of 150% or more; inactive means T/C below 125% in these data.

System: P388 leukemia ip, CD2F1 mice, survival T/C
Test: NCI In Vivo Anticancer Drug Screen. Data for tumor model P388 Leukemia (intraperitoneal) in CD2F1 (CDF1) mice
Conditions: endpoint: median survival time, higher = longer survival
Summary of the method: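 Mice carrying the transplanted tumor received test compound or vehicle. Survival was recorded in each group, and the value is the treated-group measurement divided by that of the vehicle-treated control group.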

[1] = dose: 25.0 mg/kg/injection, schedule: Q01DX009 (ip), vehicle: Klucel (hydroxypropylcellulose) (HPC)
[2] = dose: 50.0 mg/kg/injection, schedule: Q01DX009 (ip), vehicle: Klucel (hydroxypropylcellulose) (HPC)
[3] = dose: 100.0 mg/kg/injection, schedule: Q01DX009 (ip), vehicle: Klucel (hydroxypropylcellulose) (HPC)

Measured: T/C

O=c1c(N=Nc2ccccc2)c(O)n(-c2ccc(Cl)cc2)c(=S)n1-c1ccc(Br)cc1
inactive: dose: 100.0 mg/kg/injection, schedule: Q04DX002 (ip), vehicle: saline with Tween-80 102 % of control | dose: 200.0 mg/kg/injection, schedule: Q04DX002 (ip), vehicle: saline with Tween-80 103 % of control | dose: 400.0 mg/kg/injection, schedule: Q04DX002 (ip), vehicle: saline with Tween-80 94 % of control

C[N+](C)(C)Cc1ccccc1
inactive: dose: 3.13 mg/kg/injection, schedule: Q01DX009 (ip), vehicle: saline with Tween-80 100 % of control | dose: 3.13 mg/kg/injection, schedule: Q01DX009 (ip), vehicle: saline 99 % of control | dose: 6.25 mg/kg/injection, schedule: Q01DX009 (ip), vehicle: Klucel (hydroxypropylcellulose) (HPC) 95 % of control | dose: 6.25 mg/kg/injection, schedule: Q01DX009 (ip), vehicle: saline with Tween-80 100 % of control | dose: 6.25 mg/kg/injection, schedule: Q01DX009 (ip), vehicle: saline 94 % of control | dose: 12.5 mg/kg/injection, schedule: Q01DX009 (ip), vehicle: Klucel (hydroxypropylcellulose) (HPC) 93 % of control | dose: 12.5 mg/kg/injection, schedule: Q01DX009 (ip), vehicle: saline with Tween-80 100 % of control | dose: 12.5 mg/kg/injection, schedule: Q01DX009 (ip), vehicle: saline 96 % of control | [1] 99 % of control

COc1ccc(CNNc2ccc(NC(C)=O)cc2N)cc1
inactive: dose: 25.0 mg/kg/injection, schedule: Q04DX003 (ip), vehicle: saline with Tween-80 90 % of control | dose: 50.0 mg/kg/injection, schedule: Q04DX003 (ip), vehicle: saline with Tween-80 88 % of control | dose: 100.0 mg/kg/injection, schedule: Q04DX003 (ip), vehicle: saline with Tween-80 105 % of control

NC(=O)CC1(O)CCCCC1
inactive: dose: 25.0 mg/kg/injection, schedule: Q01DX009 (ip), vehicle: saline 100 % of control | dose: 50.0 mg/kg/injection, schedule: Q01DX009 (ip), vehicle: saline 100 % of control | dose: 100.0 mg/kg/injection, schedule: Q01DX009 (ip), vehicle: saline 100 % of control

N=C(N)c1ccc(NC(=O)c2cc3ccc(C(=N)N)cc3o2)cc1
inactive: dose: 12.5 mg/kg/injection, schedule: Q04DX003 (ip), vehicle: saline 101 % of control | dose: 25.0 mg/kg/injection, schedule: Q04DX003 (ip), vehicle: saline 101 % of control | dose: 50.0 mg/kg/injection, schedule: Q04DX003 (ip), vehicle: saline 102 % of control

Cc1ccc(CNc2ccc(C)c(Cl)c2)cc1
inactive: dose: 100.0 mg/kg/injection, schedule: Q04DX003 (ip), vehicle: other 100 % of control | dose: 200.0 mg/kg/injection, schedule: Q04DX003 (ip), vehicle: other 100 % of control | dose: 400.0 mg/kg/injection, schedule: Q04DX003 (ip), vehicle: other 100 % of control

CCOC(=O)C1=C(c2ccccc2)Nc2ccccc2[S+]1C (centres undefined)
inactive: dose: 15.0 mg/kg/injection, schedule: Q01DX005 (ip), vehicle: saline 99 % of control | dose: 30.0 mg/kg/injection, schedule: Q01DX005 (ip), vehicle: saline 98 % of control | dose: 60.0 mg/kg/injection, schedule: Q01DX005 (ip), vehicle: saline 98 % of control and 96 % of control

ON1c2ccccc2-c2ccccc2C1(c1ccccc1)c1ccccc1
inactive: dose: 50.0 mg/kg/injection, schedule: Q01DX005 (ip), vehicle: saline with Tween-80 94 % of control | dose: 100.0 mg/kg/injection, schedule: Q01DX005 (ip), vehicle: saline with Tween-80 99 % of control | dose: 200.0 mg/kg/injection, schedule: Q01DX005 (ip), vehicle: saline with Tween-80 90 % of control

C=C(C)c1cc(C(C)(C)C)cc(C(C)(C)O)c1S(C)(=O)=O
inactive: dose: 100.0 mg/kg/injection, schedule: Q04DX003 (ip), vehicle: Klucel (hydroxypropylcellulose) (HPC) 97 % of control | dose: 200.0 mg/kg/injection, schedule: Q04DX003 (ip), vehicle: Klucel (hydroxypropylcellulose) (HPC) 98 % of control | dose: 400.0 mg/kg/injection, schedule: Q04DX003 (ip), vehicle: Klucel (hydroxypropylcellulose) (HPC) 95 % of control

NC(N)=NS(=O)(=O)c1ccc(N2C(=O)CC3(CCCC3)C2=O)cc1
inactive: [2] 99 % of control | [3] 98 % of control | dose: 200.0 mg/kg/injection, schedule: Q01DX009 (ip), vehicle: Klucel (hydroxypropylcellulose) (HPC) 112 % of control

CCCCN(CCCC)C(Cl)=Nc1ccccc1
inactive: [1] 119 % of control | [2] 120 % of control | [3] 112 % of control
